Source: patent publication US12012409B2, “Bicyclic heterocycles as FGFR inhibitors” (Incyte Corporation, priority 2020, dated 2024)

Experiments:
Format in all cases: biochemical
Conditions in all cases: wild-type un-phosphorylated protein; pre-incubated for 4 hours; ATP near or below Km
[1] = target: wild-type un-phosphorylated FGFR4 (Homo sapiens, UniProt P22455); assay: FGFR Enzymatic Assay (FRET peptide phosphorylation), FGFR4
Procedure: (§1) The inhibitor potency of the exemplified compounds was determined in an enzyme discontinuous assay that measures peptide phosphorylation using FRET measurements to detect product formation. Inhibitors were serially diluted in DMSO and a volume of 0.2 μL was transferred to the wells of a 384-well plate. […] Appropriate controls (enzyme blank and enzyme with no inhibitor) were included on the plate. […] The ATP Km values were pre-determined in a separate series of experiments. […] The plate was allowed to equilibrate for ˜10 minutes at ambient temperature before scanning on a PheraStar plate reader (BMG Labtech) instrument.
(§2) Either GraphPad prism or XLfit was used to analyze the data. The IC50 values were derived by fitting the data to a four parameter logistic equation producing a sigmoidal dose-response curve with a variable Hill coefficient. Prism equation: Y=Bottom+(Top−Bottom)/(1+10^((LogIC50−X)*Hill slope)); XLfit equation: Y=(A+((B−A)/(1+((X/C)^D)))) where X is the logarithm of inhibitor concentration and Y is the response.
(§3) The data in Table 1 was measured in wild-type un-phosphorylated FGFR1, FGFR2, FGFR3 and FGFR4 protein.

[2] = target: wild-type un-phosphorylated FGFR3 (Homo sapiens, UniProt P22607); assay: FGFR Enzymatic Assay (FRET peptide phosphorylation), FGFR3
Chain of wild-type un-phosphorylated FGFR3 (P22607 23-806): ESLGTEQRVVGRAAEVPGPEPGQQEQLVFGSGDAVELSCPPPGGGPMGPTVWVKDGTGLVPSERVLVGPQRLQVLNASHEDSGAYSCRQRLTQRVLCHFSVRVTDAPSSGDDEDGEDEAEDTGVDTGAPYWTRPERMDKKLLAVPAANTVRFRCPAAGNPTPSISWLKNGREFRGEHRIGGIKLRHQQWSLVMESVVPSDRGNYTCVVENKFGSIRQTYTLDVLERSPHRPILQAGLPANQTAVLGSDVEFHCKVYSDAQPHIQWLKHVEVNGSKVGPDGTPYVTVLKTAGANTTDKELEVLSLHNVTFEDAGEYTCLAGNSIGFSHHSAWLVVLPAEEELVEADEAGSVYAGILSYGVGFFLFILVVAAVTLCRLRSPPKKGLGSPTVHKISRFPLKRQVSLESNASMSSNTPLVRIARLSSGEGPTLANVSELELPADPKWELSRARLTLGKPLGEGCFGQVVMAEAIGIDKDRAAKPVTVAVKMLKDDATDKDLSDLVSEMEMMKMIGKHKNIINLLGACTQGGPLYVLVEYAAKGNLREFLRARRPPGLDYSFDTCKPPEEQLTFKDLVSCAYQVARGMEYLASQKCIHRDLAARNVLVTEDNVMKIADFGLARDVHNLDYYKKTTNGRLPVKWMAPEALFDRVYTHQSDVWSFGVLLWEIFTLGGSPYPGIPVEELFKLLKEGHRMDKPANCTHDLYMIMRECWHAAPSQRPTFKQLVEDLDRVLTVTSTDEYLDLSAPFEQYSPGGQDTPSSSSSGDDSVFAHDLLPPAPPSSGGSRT
Procedure: as §1, §2

[3] = target: wild-type un-phosphorylated FGFR1 (Homo sapiens, UniProt P11362); assay: FGFR Enzymatic Assay (FRET peptide phosphorylation), FGFR1
Chain of wild-type un-phosphorylated FGFR1 (P11362 22-822): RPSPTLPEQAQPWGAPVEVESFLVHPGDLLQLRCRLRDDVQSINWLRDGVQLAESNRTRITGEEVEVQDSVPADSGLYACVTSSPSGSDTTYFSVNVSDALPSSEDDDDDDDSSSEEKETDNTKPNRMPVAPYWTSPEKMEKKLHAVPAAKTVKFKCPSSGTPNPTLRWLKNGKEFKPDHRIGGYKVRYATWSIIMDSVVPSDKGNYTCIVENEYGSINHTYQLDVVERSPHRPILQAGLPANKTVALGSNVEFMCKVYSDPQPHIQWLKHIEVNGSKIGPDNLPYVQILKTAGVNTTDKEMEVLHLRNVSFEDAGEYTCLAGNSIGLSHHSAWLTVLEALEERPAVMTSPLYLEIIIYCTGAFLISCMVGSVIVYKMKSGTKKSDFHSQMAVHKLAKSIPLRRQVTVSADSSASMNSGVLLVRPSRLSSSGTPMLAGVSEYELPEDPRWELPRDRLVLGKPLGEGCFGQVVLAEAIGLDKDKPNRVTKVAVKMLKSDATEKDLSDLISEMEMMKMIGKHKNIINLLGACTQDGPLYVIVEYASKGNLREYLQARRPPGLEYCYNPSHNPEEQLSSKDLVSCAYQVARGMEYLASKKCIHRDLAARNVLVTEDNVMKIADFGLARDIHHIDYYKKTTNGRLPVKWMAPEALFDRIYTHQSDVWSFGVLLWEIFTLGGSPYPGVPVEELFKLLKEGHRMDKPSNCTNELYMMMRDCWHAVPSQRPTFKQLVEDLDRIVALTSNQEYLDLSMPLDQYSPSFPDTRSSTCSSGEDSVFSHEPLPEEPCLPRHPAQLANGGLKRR
Procedure: as §1, §2

[4] = target: wild-type un-phosphorylated FGFR2 (Homo sapiens, UniProt P21802); assay: FGFR Enzymatic Assay (FRET peptide phosphorylation), FGFR2
Chain of wild-type un-phosphorylated FGFR2 (P21802 22-821): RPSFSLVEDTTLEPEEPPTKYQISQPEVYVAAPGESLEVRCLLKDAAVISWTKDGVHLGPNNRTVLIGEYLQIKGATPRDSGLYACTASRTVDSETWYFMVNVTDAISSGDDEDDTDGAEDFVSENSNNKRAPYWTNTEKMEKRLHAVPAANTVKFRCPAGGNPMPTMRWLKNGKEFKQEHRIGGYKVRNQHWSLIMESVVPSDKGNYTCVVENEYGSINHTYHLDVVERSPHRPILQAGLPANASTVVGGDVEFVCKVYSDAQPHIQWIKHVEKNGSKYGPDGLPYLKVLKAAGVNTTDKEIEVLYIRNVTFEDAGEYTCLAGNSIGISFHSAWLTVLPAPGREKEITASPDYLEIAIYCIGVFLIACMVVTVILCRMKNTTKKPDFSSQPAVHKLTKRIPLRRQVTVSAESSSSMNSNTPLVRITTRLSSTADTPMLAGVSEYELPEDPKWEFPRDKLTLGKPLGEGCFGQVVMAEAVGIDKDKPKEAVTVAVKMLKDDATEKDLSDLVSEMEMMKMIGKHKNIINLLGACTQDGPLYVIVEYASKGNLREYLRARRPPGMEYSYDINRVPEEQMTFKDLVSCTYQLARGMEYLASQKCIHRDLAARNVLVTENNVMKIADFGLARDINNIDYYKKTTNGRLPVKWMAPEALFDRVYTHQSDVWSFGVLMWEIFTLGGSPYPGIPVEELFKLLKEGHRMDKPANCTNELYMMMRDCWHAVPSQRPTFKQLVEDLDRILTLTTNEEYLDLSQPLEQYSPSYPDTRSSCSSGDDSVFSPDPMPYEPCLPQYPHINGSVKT
Procedure: as §1, §2, §3

Chain of wild-type un-phosphorylated FGFR4 (P22455 22-802): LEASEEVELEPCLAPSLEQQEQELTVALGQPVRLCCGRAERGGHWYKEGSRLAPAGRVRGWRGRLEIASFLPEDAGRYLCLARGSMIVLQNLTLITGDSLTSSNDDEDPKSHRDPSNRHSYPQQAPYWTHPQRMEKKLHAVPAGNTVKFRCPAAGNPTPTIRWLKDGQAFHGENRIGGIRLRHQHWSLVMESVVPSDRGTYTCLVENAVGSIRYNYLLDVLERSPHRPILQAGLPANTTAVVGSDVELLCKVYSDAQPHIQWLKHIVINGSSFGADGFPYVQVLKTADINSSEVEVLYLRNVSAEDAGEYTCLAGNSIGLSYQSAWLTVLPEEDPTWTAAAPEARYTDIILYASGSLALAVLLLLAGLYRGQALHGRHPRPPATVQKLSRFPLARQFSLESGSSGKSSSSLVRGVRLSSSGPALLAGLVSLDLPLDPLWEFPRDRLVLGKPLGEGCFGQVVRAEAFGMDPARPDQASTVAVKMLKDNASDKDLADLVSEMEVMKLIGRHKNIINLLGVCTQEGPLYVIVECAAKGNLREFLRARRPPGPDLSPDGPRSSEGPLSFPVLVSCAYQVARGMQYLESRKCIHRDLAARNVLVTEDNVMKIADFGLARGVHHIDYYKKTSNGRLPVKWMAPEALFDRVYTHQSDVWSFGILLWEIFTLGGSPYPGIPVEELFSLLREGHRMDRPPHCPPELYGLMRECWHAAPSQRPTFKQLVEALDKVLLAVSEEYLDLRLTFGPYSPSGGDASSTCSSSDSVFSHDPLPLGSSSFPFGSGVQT

SMILES | IC50 [1] [nM] | IC50 [2] [nM] | IC50 [3] [nM] | IC50 [4] [nM]
CNC(=O)c1cccc(-c2cnc3cc(-c4cnn(C)c4)c(OC)cn23)c1 [Example 1, 3-(6-Methoxy-7-(1-methyl-1H-pyrazol-4-yl)imidazo[1,2-a]pyridine-3-yl)-N-methylbenzamide] | ≥ 400 | 10 to 100 | ≥ 400 | 
CNC(=O)c1cccc(-c2cnc3cc(-c4cnn(C)c4)c(OC)nn23)c1 [Example 2, 3-(6-Methoxy-7-(1-methyl-1H-pyrazol-4-yl)imidazo[1,2-b]pyridazin-3-yl)-N-methylbenzamide] | ≥ 400 |  |  | 
CNC(=O)c1cc(F)c(F)c(-c2cnc3cc(-c4cnn5c4CCC5)c(O[C@H]4CCOC4)nn23)c1 [Example 22, (S)-3-(7-(5,6-Dihydro-4H-pyrrolo[1,2-b]pyrazol-3-yl)-6-((tetrahydrofuran-3-yl)oxy)imidazo[1,2-b]pyridazin-3-yl)-4,5-difluoro-N-methylbenzamide] | 100 to 400 | < 10 | 10 to 100 | < 10
CNC(=O)c1cc(-c2cnc3cc(-c4cnn(CCN5CCOCC5)c4)c(O[C@H]4CCOC4)nn23)c(F)c(C(F)F)c1 [Example 30, (S)-3-(Difluoromethyl)-4-fluoro-N-methyl-5-(7-(1-(2-morpholinoethyl)-1H-pyrazol-4-yl)-6-((tetrahydrofuran-3-yl)oxy)imidazo[1,2-b]pyridazin-3-yl)benzamide] | 10 to 100 | < 10 | 10 to 100 | < 10
CNC(=O)c1cccc(-c2cnc3cc(-c4cnn(C)c4)c(OC4COC4)nn23)c1 [Example 58, N-Methyl-3-(7-(1-methyl-1H-pyrazol-4-yl)-6-(oxetan-3-yloxy)imidazo[1,2-b]pyridazin-3-yl)benzamide] | 100 to 400 |  |  | < 10
CNC(=O)c1cncc(-c2cnc3cc(-c4ccc(N5CCN(C)CC5)cc4)c(O[C@H]4CCOC4)nn23)c1 [Example 68, (S)—N-Methyl-5-(7-(4-(4-methylpiperazin-1-yl)phenyl)-6-((tetrahydrofuran-3-yl)oxy)imidazo[1,2-b]pyridazin-3-yl)nicotinamide] |  | < 10 | 10 to 100 | 10 to 100
CNC(=O)c1cc(F)c(F)c(-c2cnc3cc(-c4cnn(C5CCS(=O)(=O)C5)c4)c(O[C@H]4CCOC4)nn23)c1 (stereo partly drawn) [Example 69, 3-(7-(1-(1,1-Dioxidotetrahydrothiophen-3-yl)-1H-pyrazol-4-yl)-6-(((S)-tetrahydrofuran-3-yl)oxy)imidazo[1,2-b]pyridazin-3-yl)-4,5-difluoro-N-methylbenzamide] |  | < 10 | 10 to 100 | < 10
CNC(=O)c1cc(F)c(F)c(-c2cnc3cc(-c4cnn(-c5ccccn5)c4)c(O[C@H]4CCOC4)nn23)c1 [Example 70, (S)-3,4-Difluoro-N-methyl-5-(7-(1-(pyridin-2-yl)-1H-pyrazol-4-yl)-6-((tetrahydrofuran-3-yl)oxy)imidazo[1,2-b]pyridazin-3-yl)benzamide] |  | < 10 | 100 to 400 | < 10

Results, then the compound that gave them:

IC50 [1] [nM] | IC50 [2] [nM] | IC50 [3] [nM] | IC50 [4] [nM] | SMILES
 | < 10 | < 10 | < 10 | CNC(=O)c1cc(F)c(F)c(-c2cnc3cc(-c4cnn(C5CCN(C)CC5)c4)c(O[C@H]4CCOC4)nn23)c1 [Example 71, (S)-3,4-Difluoro-N-methyl-5-(7-(1-(1-methylpiperidin-4-yl)-1H-pyrazol-4-yl)-6-((tetrahydrofuran-3-yl)oxy)imidazo[1,2-b]pyridazin-3-yl)benzamide]
 | < 10 | 100 to 400 | 10 to 100 | CNC(=O)c1cc(F)c(F)c(-c2cnc3cc(-c4ccncc4)c(O[C@H]4CCOC4)nn23)c1 [Example 72, (S)-3,4-Difluoro-N-methyl-5-(7-(pyridin-4-yl)-6-((tetrahydrofuran-3-yl)oxy)imidazo[1,2-b]pyridazin-3-yl)benzamide]
 | < 10 | < 10 | < 10 | CNC(=O)c1cc(F)c(F)c(-c2cnc3cc(-c4cnn(C5CCN(C(=O)N(C)C)CC5)c4)c(O[C@H]4CCOC4)nn23)c1 [Example 73, (S)-4-(4-(3-(2,3-Difluoro-5-(methylcarbamoyl)phenyl)-6-((tetrahydrofuran-3-yl)oxy)imidazo[1,2-b]pyridazin-7-yl)-1H-pyrazol-1-yl)-N,N-dimethylpiperidine-1-carboxamide]
 | < 10 | < 10 | < 10 | CNC(=O)c1cc(F)c(F)c(-c2cnc3cc(-c4cnn(C5CCN(C(C)=O)CC5)c4)c(O[C@H]4CCOC4)nn23)c1 [Example 74, (S)-3-(7-(1-(1-Acetylpiperidin-4-yl)-1H-pyrazol-4-yl)-6-((tetrahydrofuran-3-yl)oxy)imidazo[1,2-b]pyridazin-3-yl)-4,5-difluoro-N-methylbenzamide]
 | < 10 | < 10 | < 10 | CNC(=O)c1cc(F)c(F)c(-c2cnc3cc(-c4cnn(CCN5CCCC5=O)c4)c(O[C@H]4CCOC4)nn23)c1 [Example 75, (S)-3,4-Difluoro-N-methyl-5-(7-(1-(2-(2-oxopyrrolidin-1-yl)ethyl)-1H-pyrazol-4-yl)-6-((tetrahydrofuran-3-yl)oxy)imidazo[1,2-b]pyridazin-3-yl)benzamide]
 | < 10 | < 10 | < 10 | CNC(=O)c1cc(F)c(F)c(-c2cnc3cc(-c4cnn(C5CCN(S(=O)(=O)N(C)C)CC5)c4)c(O[C@H]4CCOC4)nn23)c1 [Example 76, (S)-3-(7-(1-(1-(N,N-Dimethylsulfamoyl)piperidin-4-yl)-1H-pyrazol-4-yl)-6-((tetrahydrofuran-3-yl)oxy)imidazo[1,2-b]pyridazin-3-yl)-4,5-difluoro-N-methylbenzamide]
 | 10 to 100 | ≥ 400 | 10 to 100 | CC(C)n1cc(-c2cc3ncc(-c4ccc5c(c4)C(=O)NC5)n3nc2O[C@H]2CCOC2)cn1 [Example 77, (S)-6-(7-(1-Isopropyl-1H-pyrazol-4-yl)-6-((tetrahydrofuran-3-yl)oxy)imidazo[1,2-b]pyridazin-3-yl)isoindolin-1-one]
